# ChEMBL document CHEMBL3046137, “Benzo[d][1,3] oxathiols: synthesis and biological evaluation as potential atypical antipsychotic agents” (Med Chem Res, 2011)
# Key:
# Mus musculus [1] = assay: Atypical antipsychotic activity in Mus musculus albino (mouse) assessed as inhibition of 5HTP-induced head twitching at 25 mg/kg, ip administered 30 min prior to 5-HTP-challenge measured after 20 min for 5 min
# Mus musculus [2] = assay: Induction of catalepsy in ip dosed Mus musculus albino (mouse) measured after 20 min for 5 min; type: organism-based; settings: in vivo
# Mus musculus [3] = assay: Atypical antipsychotic activity in Mus musculus albino (mouse) assessed as inhibition of apomorphine-induced climbing behaviour at 60 mg/kg, ip administered 30 min prior to apomorphine-challenge measured after 5 min for 30 min relative to control; type: functional; settings: route intraperitoneal
# Mus musculus [4] = assay: Induction of catalepsy in Mus musculus albino (mouse) at 25 mg/kg, ip measured after 20 min for 5 min; type: organism-based; design: dose 25 mg/kg, route intraperitoneal; settings: in vivo
# Mus musculus [5] = species: Mus musculus; assay: animal or person; settings: albino, ip, read-out: INH
# Description: Atypical antipsychotic activity in Mus musculus albino (mouse) assessed as inhibition of apomorphine-induced climbing behaviour at 25 mg/kg, ip administered 30 min prior to apomorphine-challenge measured after 5 min for 30 min relative to control
SMILES,inhibition in vivo at 25 mg/kg (Mus musculus [1]) [%],Activity (Mus musculus [2]),inhibition in vivo at 60 mg/kg (Mus musculus [3]) [%],Activity (Mus musculus [4]) [%],inhibition in vivo at 25 mg/kg (Mus musculus [5]) [%]
O=c1oc2cc(OCCCN3CCCCC3)ccc2s1,67.3,Dose-dependent effect,51.2,41,–
O=c1oc2cc(OCCCOc3ccc4ccccc4c3)ccc2s1,61.1,Dose-dependent effect,47,41.22,–
O=c1oc2cc(OCCCn3cnnc3)ccc2s1,79.3,Dose-dependent effect,70,36.98,–
CCN(CC)CCCOc1ccc2sc(=O)oc2c1,63.4,Dose-dependent effect,53.3,37.11,–
O=c1oc2cc(OCCCN3CCOCC3)ccc2s1,71.5,Dose-dependent effect,69.6,39.27,–
Cc1ccc(OCCCOc2ccc3sc(=O)oc3c2)cc1,77.3,Dose-dependent effect,52.4,39.48,–
O=c1oc2cc(OCCCN3CCNCC3)ccc2s1,68.2,Dose-dependent effect,62.3,42.39,–
O=c1oc2cc(OCCCOc3cccc4ccccc34)ccc2s1,58.3,Dose-dependent effect,39,49.21,–
O=c1oc2cc(OCCCOc3ccc([N+](=O)[O-])cc3)ccc2s1,80,Dose-dependent effect,67.3,43.92,–
O=c1oc2cc(OCCCOc3ccc(Cl)cc3)ccc2s1,77.9,Dose-dependent effect,49.3,33.71,–
O=C1CCc2ccc(OCCCCN3CCN(c4cccc(Cl)c4Cl)CC3)cc2N1 [ARIPIPRAZOLE],80.2,–,–,29.34,62.4
